pIC50: −log10 of the molar value. Read-outs that look alike come from different tables or passages of the source. Bounds are passed on as bounds.

The target of the test is T1, human ENT1 (Homo sapiens, UniProt Q99808).
T1 construct: JAR cells expressing ENT1 were purchased from ATCC; host or cells: JAR cells
T1 sequence (Q99808 1-456): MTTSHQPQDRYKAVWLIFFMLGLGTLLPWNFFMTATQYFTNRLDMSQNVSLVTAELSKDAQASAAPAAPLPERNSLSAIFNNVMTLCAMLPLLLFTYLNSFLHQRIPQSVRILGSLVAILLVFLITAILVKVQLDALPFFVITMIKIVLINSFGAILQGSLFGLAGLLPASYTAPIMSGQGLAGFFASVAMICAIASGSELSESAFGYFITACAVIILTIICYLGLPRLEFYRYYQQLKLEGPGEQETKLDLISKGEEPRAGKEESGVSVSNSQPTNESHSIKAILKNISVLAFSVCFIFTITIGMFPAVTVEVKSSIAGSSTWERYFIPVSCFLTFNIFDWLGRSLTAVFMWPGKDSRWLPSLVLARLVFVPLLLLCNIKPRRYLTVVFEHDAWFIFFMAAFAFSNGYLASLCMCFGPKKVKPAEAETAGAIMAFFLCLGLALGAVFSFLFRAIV
In words: ENT1 binding assay (competition with Sahenta-DY647 on JAR cells). To be noted: IC50 categorized. In short, it runs like this: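 Fluorescent-tracer displacement: compound incubated with JAR cells 30 min, 4 °C, before Sahenta-DY647 (100 nM) for another 30 min, 4 °C, in Hepes-buffered HBSS with 0.1% BSA. Bound tracer read at 670 nm after washes; IC50 from four-parameter fit, reported as mean of pIC50 values.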

The mark [1] stands for this setting: competition with SAHENTA-DY647 binding, read-out: Binding Assay IC50.

In general, pIC50 refers to the IC50 on a negative log10 scale, so that one unit is a factor of ten. Turning to `C[C@H]1O[C@@H](n2cnc3c(OCc4cccc(S(C)(=O)=O)c4)ncnc32)[C@H](O)[C@@H]1O` [Compound 332], the pIC50 under setting [1] was less than 6.30.
Still for that read-out and setting: as for `C[C@H]1O[C@@H](n2cnc3c(OCc4ccccc4S(C)(=O)=O)ncnc32)[C@H](O)[C@@H]1O` [Compound 375], the figure is less than 6.30.
Take `C[C@H]1O[C@@H](n2cnc3c(OCc4ccc([N+](=O)[O-])nc4)ncnc32)[C@H](O)[C@@H]1O` [Compound 205]: the pIC50 under setting [1] is 6.30 to 7.70.
On to `C[C@H]1O[C@@H](n2cnc3c(C(=O)N4CCC(c5ccc([N+](=O)[O-])cc5)CC4)ncnc32)[C@H](O)[C@@H]1O` [Compound 418], for which, under setting [1], the negative logarithm of the IC50 (pIC50) is less than 6.30.
Consider `C[C@H]1O[C@@H](n2cnc3c(COc4ccc(OCF)cc4)ncnc32)[C@H](O)[C@@H]1O` [Compound 296], for which the pIC50 under setting [1] was less than 6.30.
Turning to `C[C@H]1O[C@@H](n2c(NCCOc3ccccc3)nc3c(OCc4ccc(OC(F)F)cc4)ncnc32)[C@H](O)[C@@H]1O` [Compound 7], the pIC50 under setting [1] was 7.70 to 9.00.
Turning to `C[C@H]1O[C@@H](n2cnc3c(OCCc4ccc(=O)n(C)c4)ncnc32)[C@H](O)[C@@H]1O` [Compound 401], the pIC50 under setting [1] was less than 6.30.
On to `Cc1ccc2nc(CSc3ncnc4c3ncn4[C@@H]3O[C@H](C)[C@@H](O)[C@H]3O)cn2c1` [Compound 396], for which the pIC50 under setting [1] was less than 6.30.
On to `C[C@H]1O[C@@H](n2cnc3c(C(=O)N4CCc5cc([N+](=O)[O-])ccc5C4)ncnc32)[C@H](O)[C@@H]1O` [Compound 302], for which the pIC50 under setting [1] was less than 6.30.
`Cc1nc2ccc(COc3ncnc4c3ncn4[C@@H]3O[C@H](C)[C@@H](O)[C@H]3O)cc2o1` [Compound 338]: under setting [1], the pIC50 was less than 6.30.
Consider `O=[N+]([O-])c1ccc(COc2ncnc3c2ncn3[C@H]2C[C@H](O)[C@@H](CO)O2)cc1` [Compound 405], for which the pIC50 under setting [1] is less than 6.30.
On the same count and under the same terms, as for `C[C@H]1O[C@@H](n2cnc3c(OCc4cccc(OC(F)F)c4)ncnc32)[C@H](O)[C@@H]1O` [Compound 246], the figure is less than 6.30.
With `C[C@H]1O[C@@H](n2cnc3c(COc4ccc(C#N)cc4)ncnc32)[C@H](O)[C@@H]1O` [Compound 280], for the setting “Binding Assay IC50, competition with SAHENTA-DY647 binding”, the pIC50 was less than 6.30.
`C[C@H]1O[C@@H](n2c(N[C@H]3C[C@@H](O)C3)nc3c(OCc4ccc(C#N)cc4)ncnc32)[C@H](O)[C@@H]1O` [Compound 51]: the negative-log IC50 (pIC50) under setting [1] is 7.70 to 9.00.
On to `C[C@H]1O[C@@H](n2cnc3c(SCc4cscn4)ncnc32)[C@H](O)[C@@H]1O` [Compound 300], for which the pIC50 under setting [1] was less than 6.30.
Still for that read-out and setting: as for `C[C@H]1O[C@@H](n2cnc3c(OCCc4ccc([S+](C)[O-])cc4)ncnc32)[C@H](O)[C@@H]1O` (some centres unmarked) [Compound 408], the figure is less than 6.30.
As to `OC[C@@H]1C[C@@H](O)[C@H](n2cnc3c(OCc4ccc(OC(F)F)cc4)ncnc32)O1` [Compound 303], the pIC50 under setting [1] is less than 6.30.
For the compound `C[C@H]1O[C@@H](n2c(N)nc3c(OCc4ccccc4)ncnc32)[C@H](O)[C@@H]1O` [Compound 355], under setting [1], the pIC50 was less than 6.30.
On to `Cc1cc(CSc2ncnc3c2ncn3[C@@H]2O[C@H](C)[C@@H](O)[C@H]2O)n(C)n1` [Compound 289], for which the pIC50 under setting [1] was less than 6.30.
On to `C[C@H]1O[C@@H](n2cnc3c(OCc4ccc([N+](=O)[O-])cc4)nc(O)nc32)[C@H](O)[C@@H]1O` [Compound 256], for which, under setting [1], the pIC50 is less than 6.30.
`C[C@H]1O[C@@H](n2c(N[C@H]3CC[C@](C)(O)CC3)nc3c(OCc4ccc(C#N)cc4)ncnc32)[C@H](O)[C@@H]1O` [Compound 132]: the pIC50 under setting [1] is 7.70 to 9.00.
As to `O=[N+]([O-])c1ccc(COc2ncnc3c2ncn3[C@@H]2O[C@H](CO)[C@@H](O)C2(F)F)cc1` [Compound 220], under setting [1], the pIC50 was less than 6.30.
As for `C[C@H]1O[C@@H](n2cnc3c(OCCc4ccc(C(F)F)nc4)ncnc32)[C@H](O)[C@@H]1O` [Compound 400], under setting [1], the negative-log IC50 (pIC50) is less than 6.30.
As for `COc1ccc(COc2ncnc3c2ncn3[C@@H]2O[C@H](C)[C@@H](O)[C@H]2O)cc1OC1CCCC1` [Compound 346], under setting [1], the pIC50 was less than 6.30.
Consider `C[C@H]1O[C@@H](n2c(NC3CCC(O)CC3)nc3c(N4CCc5ccc([N+](=O)[O-])cc5C4)ncnc32)[C@H](O)[C@@H]1O` (some centres unmarked) [Compound 140], for which the pIC50 under setting [1] is greater than 9.00.
On the same count and under the same terms, the figure for `Cc1nccn1-c1ccc(COc2ncnc3c2ncn3[C@@H]2O[C@H](C)[C@@H](O)[C@H]2O)cc1` [Compound 381] is less than 6.30.
The same measure, in the same setting: the figure for `C[C@H]1O[C@@H](n2c(N)nc3c(OCc4ccc([N+](=O)[O-])cc4)ncnc32)[C@H](O)[C@@H]1O` [Compound 4] is 6.30 to 7.70.
For `C[C@H]1O[C@@H](n2cnc3c(OCCc4ccc(OC(F)F)cc4)ncnc32)[C@H](O)[C@@H]1O` [Compound 276], under setting [1], the pIC50 is less than 6.30.
The same measure, in the same setting: as for `C[C@H]1O[C@@H](n2c(N[C@H]3CC[C@](C)(O)CC3)nc3c(N4CCc5ccc([N+](=O)[O-])cc5C4)ncnc32)[C@H](O)[C@@H]1O` [Compound 144], the figure is 7.70 to 9.00; as for `C[C@H]1O[C@@H](n2cnc3c(OCc4cc(F)c(C#N)c(F)c4)nc(Cl)nc32)[C@H](O)[C@@H]1O` [Compound 284], less than 6.30; as for `C[C@H]1O[C@@H](n2cnc3c(CO[C@H]4CC[C@H](C(F)(F)F)CC4)ncnc32)[C@H](O)[C@@H]1O` [Compound 371], less than 6.30.
Consider `C[C@H]1O[C@@H](n2cnc3c(OCc4ccccc4-n4cccn4)ncnc32)[C@H](O)[C@@H]1O` [Compound 358], for which the pIC50 under setting [1] was less than 6.30.
Take `C[C@H]1O[C@@H](n2cnc3c(OCCc4cnc(OCF)nc4)ncnc32)[C@H](O)[C@@H]1O` [Compound 356]: the pIC50 under setting [1] is less than 6.30.
The same measure, in the same setting: as for `C[C@H]1O[C@@H](n2cnc3c(C(=O)N4CCC4c4ccccc4)ncnc32)[C@H](O)[C@@H]1O` (some centres unmarked) [Compound 422], the figure is less than 6.30; as for `Cc1nnc(CSc2ncnc3c2ncn3[C@@H]2O[C@H](C)[C@@H](O)[C@H]2O)o1` [Compound 398], less than 6.30; as for `C[C@H]1O[C@@H](n2cnc3c(-c4nc(-c5ccc([N+](=O)[O-])cc5)no4)ncnc32)[C@H](O)[C@@H]1O` [Compound 420], less than 6.30.
Consider `C[C@H]1O[C@@H](n2cnc3c(COc4ccc(OC(F)(F)F)cc4)ncnc32)[C@H](O)[C@@H]1O` [Compound 288], for which the pIC50 under setting [1] was less than 6.30.
On the same count and under the same terms, as for `C[C@H]1O[C@@H](n2c(NCC3CCC(F)(F)C3)nc3c(OCc4ccc(C#N)cc4)ncnc32)[C@H](O)[C@@H]1O` (some centres unmarked) [Compound 105], the figure is 7.70 to 9.00; as for `C[C@H]1O[C@@H](n2cnc3c(C(=O)NCc4ccc(C#N)c(F)c4)ncnc32)[C@H](O)[C@@H]1O` [Compound 369], less than 6.30; as for `CCOC(=O)/C=C/[C@H]1O[C@@H](n2cnc3c(OCc4ccc([N+](=O)[O-])cc4)ncnc32)[C@H](O)[C@@H]1O` [Compound 169], 6.30 to 7.70.
`C[C@H]1O[C@@H](n2c(N[C@H]3C[C@H](O)C3)nc3c(OCc4ccc(C#N)cc4)ncnc32)[C@H](O)[C@@H]1O` [Compound 50]: the pIC50 under setting [1] was greater than 9.00.
`C[C@H]1O[C@@H](n2cnc3c(NCc4ccccc4C(N)=O)ncnc32)[C@H](O)[C@@H]1O` [Compound 374]: the pIC50 under setting [1] is less than 6.30.
On the same count and under the same terms, as for `C[C@H]1O[C@@H](n2cnc3c(OCc4ccc(OCCF)cc4)ncnc32)[C@H](O)[C@@H]1O` [Compound 236], the figure is less than 6.30; as for `C[C@H]1OC(n2cnc3c(COc4ccc(OC(F)F)cc4)ncnc32)[C@H](O)[C@@H]1O` (some centres unmarked) [Compound 233], less than 6.30; as for `CC1OC(n2c(NC3CC(C)(O)C3)nc3c(N4CCc5ccc([N+](=O)[O-])cc5C4)ncnc32)C(O)C1O` (single isomer, unassigned) [Compound 137], greater than 9.00.
For the compound `C[C@H]1O[C@@H](n2c(N[C@H]3C[C@@H](O)C3)nc3c(OCc4ccc([N+](=O)[O-])cc4)ncnc32)[C@H](O)[C@@H]1O` [Compound 48], under setting [1], the pIC50 is 7.70 to 9.00.
On to `C[C@H]1O[C@@H](n2cnc3c(C(=O)N4CCC(c5ccc([N+](=O)[O-])cc5)C4)ncnc32)[C@H](O)[C@@H]1O` (some centres unmarked) [Compound 419], for which the pIC50 under setting [1] was less than 6.30.
For the compound `CC(C)Nc1nc2c(N3CCc4ccccc4C3)ncnc2n1[C@@H]1O[C@H](C)[C@@H](O)[C@H]1O` [Compound 212], under setting [1], the pIC50 was 6.30 to 7.70.
As for `C[C@H]1O[C@@H](n2cnc3c(NCc4cccc(-c5ncco5)c4)ncnc32)[C@H](O)[C@@H]1O` [Compound 380], the pIC50 under setting [1] was less than 6.30.
As for `COc1cc(COc2ncnc3c2ncn3[C@@H]2O[C@H](C)[C@@H](O)[C@H]2O)cc(OC)c1OC` [Compound 382], the pIC50 under setting [1] is less than 6.30.

(Values after US20260184712A1, “Heterocyclic Compounds as ENT Inhibitors and Compounds for Use in the Treatment of Cancers” (iTeos Belgium SA, priority 2022, published 2026).)
